Measured values as given in patent publication US20100323021A1, “ANTITUMORAL TREATMENTS” (PHARMA MAR, S.A., priority 2008, published 2010).

How the values were obtained:
[1] = system: human cervical epithelium HeLa tumor cells; assay: Antiproliferation assay (WST-1 cell viability); type: cell-based; settings: 24 h incubation, conjugates added at a peptide concentration of 1×10^−5 M
Protocol: The degree of cytotoxic activity of single peptides (P1 and P2), single gold nanoparticle solutions (AuNP-20 and AuNP-40) and their respective conjugates was determined by cell viability testing using the WST-1 assay in human cervical epithelium HeLa tumor cells, following 24 h of incubation. Each assay was run in sextuplicate, and the whole experiment was run in triplicate.
HeLa cell line (ATTC no CCL-2) was maintained in Dulbecco Modified Eagle's Minimal Essential Medium (DMEM) low glucose medium (Biological Industries) containing 10% foetal calf serum (FCS), 2 mM glutamine, 50 U/mL penicillin, and […] streptomycin at 37° C. in a controlled 5% CO2 atmosphere.
For cell viability experiments, exponentially growing HeLa cells were detached from the culture flasks using a trypsin-0.25% ethylenediaminetetraacetic acid (EDTA) solution and the cell suspension was seeded at a concentration of 3.5×10^3 cells/cm^2 onto glass coverslips (Nalge Nunc International, Rochester, N.Y.). WST 1 assays were carried out 24 h later, when the confluence was approximately 70-80%. Non-adherent cells were washed away and attached cells were incubated at 37° C. in 5% CO2 in DMEM with a known concentration of gold nanoparticles.
For each assay, 3.5×10^3 cells/cm^2 were seeded onto a 96-well plate (Nalge Nunc) and cultured for 24 h. […]

mouse leukemia (P388) = settings: cited from earlier work
[2] = system: non-small cell lung (A549); settings: cited from earlier work
colon (HT-29) = settings: cited from earlier work
[3] = system: human tumor cell types such as breast, prostate, and melanoma; settings: xenografted murine models; cited from earlier work

SMILES: C/C=C1\NC(=O)[C@H](Cc2ccccc2)NC(=O)[C@@H](C(C)C)NC(=O)[C@@H]([C@@H](C)CC)NC(=O)[C@H](NC(=O)[C@H](NC(=O)[C@H](CCCN)NC(=O)[C@H]2CCCN2C(=O)[C@H](NC(=O)[C@@H](NC(=O)[C@@H](NC(=O)[C@@H](CS)NC(=O)CCCC(C)C)[C@@H](C)O)C(C)C)C(C)C)[C@@H](C)CC)[C@@H](C)OC(=O)[C@H](C(C)C)NC1=O [P1]
- inhibition (cytotoxicity against HeLa cells) [1]: 50%

SMILES: C/C=C1\NC(=O)[C@H](Cc2ccccc2)NC(=O)[C@@H](C(C)C)NC(=O)[C@@H]([C@@H](C)CC)NC(=O)[C@H](NC(=O)[C@H](NC(=O)[C@H](CCCN)NC(=O)[C@H]2CCCN2C(=O)[C@H](NC(=O)[C@@H](NC(=O)[C@@H](NC(=O)[C@H](NC(=O)CCCC(C)C)C(C)C)[C@@H](C)O)C(C)C)C(C)C)[C@@H](C)CC)[C@@H](C)OC(=O)[C@H](C(C)C)NC1=O [Kahalalide F]
- in vitro activity (mouse leukemia (P388)): micromolar activity
- in vitro activity [2]: micromolar activity
- in vitro activity (colon (HT-29)): micromolar activity

SMILES: C/C=C1\NC(=O)[C@H](Cc2ccccc2)NC(=O)[C@@H](C(C)C)NC(=O)[C@@H]([C@@H](C)CC)NC(=O)[C@H](NC(=O)[C@H](NC(=O)[C@H](CCCN)NC(=O)[C@H]2CCCN2C(=O)[C@H](NC(=O)[C@@H](NC(=O)[C@@H](NC(=O)[C@H](NC(=O)CC[C@@H](C)CC)C(C)C)[C@@H](C)O)C(C)C)C(C)C)[C@@H](C)CC)[C@@H](C)OC(=O)[C@H](C(C)C)NC1=O [PMO2734]
- in vivo activity [3]: significant in vivo activity

SMILES: C/C=C1\NC(=O)[C@H](Cc2ccccc2)NC(=O)[C@@H](C(C)C)NC(=O)[C@@H]([C@@H](C)CC)NC(=O)[C@H](NC(=O)[C@H](NC(=O)[C@H](CCCN)NC(=O)[C@H]2CCCN2C(=O)[C@H](NC(=O)[C@@H](NC(=O)[C@@H](NC(=O)[C@H](CS)NC(=O)CCCC(C)C)[C@@H](C)O)C(C)C)C(C)C)[C@@H](C)CC)[C@@H](C)OC(=O)[C@H](C(C)C)NC1=O [P2]
- inhibition (cytotoxicity against HeLa cells) [1]: 10%
